Assay results as given in PMC10682951, “Structure-function and rational design of a spider toxin Ssp1a at human voltage-gated sodium channel subtypes” (Frontiers in Pharmacology, 2023).
Bridge positions count the residues as written; N and C are the ends. Peptide text beside a SMILES is read from it.

Columns and labels:
Format in all cases: cell-based
hNaV1.2 = target: T1, hNaV1.2 (Homo sapiens, UniProt Q99250); experiment: Automated whole-cell patch-clamp (QPatch 16X), hNaV1.2; conditions: for IC50: HEK293 cells expressing hNaV1.2 + β1 subunit, QPatch 16X, holding −80 mV, step to 0 mV, peptide incubated 2 min, 0.1% BSA, mean, SEM and n (2-7)
T1 construct: host or cells: HEK293
T1 sequence (Q07699 19-218): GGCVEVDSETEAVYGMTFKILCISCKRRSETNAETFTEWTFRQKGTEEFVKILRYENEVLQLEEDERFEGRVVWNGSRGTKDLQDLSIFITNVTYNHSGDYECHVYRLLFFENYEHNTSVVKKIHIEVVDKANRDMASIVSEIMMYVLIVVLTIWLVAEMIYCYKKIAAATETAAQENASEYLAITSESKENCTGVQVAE
T1 sequence (Q99250 whole entry): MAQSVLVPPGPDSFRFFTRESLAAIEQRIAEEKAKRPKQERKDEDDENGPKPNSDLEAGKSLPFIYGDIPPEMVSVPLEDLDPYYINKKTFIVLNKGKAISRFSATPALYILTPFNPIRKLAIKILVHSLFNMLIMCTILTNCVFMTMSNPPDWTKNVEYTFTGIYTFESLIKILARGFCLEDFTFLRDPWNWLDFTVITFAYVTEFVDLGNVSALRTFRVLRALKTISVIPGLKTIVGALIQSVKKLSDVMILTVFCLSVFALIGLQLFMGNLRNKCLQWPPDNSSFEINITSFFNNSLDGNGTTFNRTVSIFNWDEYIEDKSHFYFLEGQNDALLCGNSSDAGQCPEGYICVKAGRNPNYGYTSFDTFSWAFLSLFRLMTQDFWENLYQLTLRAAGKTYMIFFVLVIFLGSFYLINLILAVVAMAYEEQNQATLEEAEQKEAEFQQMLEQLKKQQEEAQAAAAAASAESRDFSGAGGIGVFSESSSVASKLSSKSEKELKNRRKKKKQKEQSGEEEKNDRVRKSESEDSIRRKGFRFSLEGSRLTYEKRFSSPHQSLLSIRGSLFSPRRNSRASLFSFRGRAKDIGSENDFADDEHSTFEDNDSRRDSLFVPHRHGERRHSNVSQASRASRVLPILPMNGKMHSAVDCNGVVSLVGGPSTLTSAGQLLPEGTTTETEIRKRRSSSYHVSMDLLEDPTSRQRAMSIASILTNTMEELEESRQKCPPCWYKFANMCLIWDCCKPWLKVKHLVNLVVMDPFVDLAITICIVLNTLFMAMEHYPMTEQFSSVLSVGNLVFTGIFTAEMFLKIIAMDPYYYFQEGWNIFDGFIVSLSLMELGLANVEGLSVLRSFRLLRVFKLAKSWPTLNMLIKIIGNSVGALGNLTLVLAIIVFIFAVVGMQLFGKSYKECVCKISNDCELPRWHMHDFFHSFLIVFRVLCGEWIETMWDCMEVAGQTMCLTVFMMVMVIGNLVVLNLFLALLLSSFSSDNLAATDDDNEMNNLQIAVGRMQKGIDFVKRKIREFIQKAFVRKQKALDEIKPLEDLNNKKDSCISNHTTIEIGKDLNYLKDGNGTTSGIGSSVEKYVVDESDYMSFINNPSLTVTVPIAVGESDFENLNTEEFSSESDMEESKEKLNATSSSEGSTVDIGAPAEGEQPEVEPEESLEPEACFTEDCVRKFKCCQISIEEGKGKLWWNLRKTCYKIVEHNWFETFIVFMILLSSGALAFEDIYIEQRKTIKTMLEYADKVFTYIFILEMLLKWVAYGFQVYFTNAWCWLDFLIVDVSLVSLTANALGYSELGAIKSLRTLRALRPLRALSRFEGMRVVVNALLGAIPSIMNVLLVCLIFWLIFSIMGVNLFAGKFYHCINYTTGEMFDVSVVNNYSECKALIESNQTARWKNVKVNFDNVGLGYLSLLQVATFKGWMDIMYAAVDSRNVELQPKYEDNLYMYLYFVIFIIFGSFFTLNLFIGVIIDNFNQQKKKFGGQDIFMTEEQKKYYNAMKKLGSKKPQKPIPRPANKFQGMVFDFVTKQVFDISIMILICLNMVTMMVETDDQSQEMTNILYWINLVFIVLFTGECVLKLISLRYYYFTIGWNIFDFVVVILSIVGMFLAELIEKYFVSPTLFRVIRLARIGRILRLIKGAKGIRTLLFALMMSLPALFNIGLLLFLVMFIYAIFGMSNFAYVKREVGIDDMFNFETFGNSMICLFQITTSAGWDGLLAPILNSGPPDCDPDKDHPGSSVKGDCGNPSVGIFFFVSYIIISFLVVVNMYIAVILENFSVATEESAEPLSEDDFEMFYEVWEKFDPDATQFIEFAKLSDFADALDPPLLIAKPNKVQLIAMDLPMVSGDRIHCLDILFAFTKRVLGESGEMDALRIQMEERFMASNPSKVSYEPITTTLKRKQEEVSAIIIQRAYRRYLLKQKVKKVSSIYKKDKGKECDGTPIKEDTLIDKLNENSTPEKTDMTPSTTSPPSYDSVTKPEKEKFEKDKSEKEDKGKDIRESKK
How it was run: (§1)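 HEK293 cells stably expressing the channel (human subtypes with β1 subunit), held at −80 mV; 2 min peptide pre-incubation, then 20 ms steps to 0 mV after a 200 ms −120 mV conditioning pulse. Extracellular pH 7.3 with 20 mM TEA-Cl, CsF-based pipette solution, 0.1% BSA; IC50 from four-parameter Hill fit.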

hNaV1.3 = target: T2, hNaV1.3 (Homo sapiens, UniProt Q9NY46); experiment: Automated whole-cell patch-clamp (QPatch 16X), hNaV1.3; conditions: HEK293 cells expressing hNaV1.3 + β1 subunit; QPatch 16X; holding −80 mV, step to 0 mV; peptide incubated 2 min; 0.1% BSA; mean, SEM and n (3-12)
T2 construct: host or cells: HEK293
How it was run: as §1

hNaV1.7 = target: T3, hNaV1.7 (Homo sapiens, UniProt Q15858); experiment: Automated whole-cell patch-clamp (QPatch 16X), hNaV1.7; conditions: for IC50: HEK293 cells expressing hNaV1.7 + β1 subunit, QPatch 16X, holding −80 mV, step to 0 mV, peptide incubated 2 min, 0.1% BSA, mean, SEM and n (3-9)
T3 construct: host or cells: HEK293
T3 sequence (Q15858 whole entry): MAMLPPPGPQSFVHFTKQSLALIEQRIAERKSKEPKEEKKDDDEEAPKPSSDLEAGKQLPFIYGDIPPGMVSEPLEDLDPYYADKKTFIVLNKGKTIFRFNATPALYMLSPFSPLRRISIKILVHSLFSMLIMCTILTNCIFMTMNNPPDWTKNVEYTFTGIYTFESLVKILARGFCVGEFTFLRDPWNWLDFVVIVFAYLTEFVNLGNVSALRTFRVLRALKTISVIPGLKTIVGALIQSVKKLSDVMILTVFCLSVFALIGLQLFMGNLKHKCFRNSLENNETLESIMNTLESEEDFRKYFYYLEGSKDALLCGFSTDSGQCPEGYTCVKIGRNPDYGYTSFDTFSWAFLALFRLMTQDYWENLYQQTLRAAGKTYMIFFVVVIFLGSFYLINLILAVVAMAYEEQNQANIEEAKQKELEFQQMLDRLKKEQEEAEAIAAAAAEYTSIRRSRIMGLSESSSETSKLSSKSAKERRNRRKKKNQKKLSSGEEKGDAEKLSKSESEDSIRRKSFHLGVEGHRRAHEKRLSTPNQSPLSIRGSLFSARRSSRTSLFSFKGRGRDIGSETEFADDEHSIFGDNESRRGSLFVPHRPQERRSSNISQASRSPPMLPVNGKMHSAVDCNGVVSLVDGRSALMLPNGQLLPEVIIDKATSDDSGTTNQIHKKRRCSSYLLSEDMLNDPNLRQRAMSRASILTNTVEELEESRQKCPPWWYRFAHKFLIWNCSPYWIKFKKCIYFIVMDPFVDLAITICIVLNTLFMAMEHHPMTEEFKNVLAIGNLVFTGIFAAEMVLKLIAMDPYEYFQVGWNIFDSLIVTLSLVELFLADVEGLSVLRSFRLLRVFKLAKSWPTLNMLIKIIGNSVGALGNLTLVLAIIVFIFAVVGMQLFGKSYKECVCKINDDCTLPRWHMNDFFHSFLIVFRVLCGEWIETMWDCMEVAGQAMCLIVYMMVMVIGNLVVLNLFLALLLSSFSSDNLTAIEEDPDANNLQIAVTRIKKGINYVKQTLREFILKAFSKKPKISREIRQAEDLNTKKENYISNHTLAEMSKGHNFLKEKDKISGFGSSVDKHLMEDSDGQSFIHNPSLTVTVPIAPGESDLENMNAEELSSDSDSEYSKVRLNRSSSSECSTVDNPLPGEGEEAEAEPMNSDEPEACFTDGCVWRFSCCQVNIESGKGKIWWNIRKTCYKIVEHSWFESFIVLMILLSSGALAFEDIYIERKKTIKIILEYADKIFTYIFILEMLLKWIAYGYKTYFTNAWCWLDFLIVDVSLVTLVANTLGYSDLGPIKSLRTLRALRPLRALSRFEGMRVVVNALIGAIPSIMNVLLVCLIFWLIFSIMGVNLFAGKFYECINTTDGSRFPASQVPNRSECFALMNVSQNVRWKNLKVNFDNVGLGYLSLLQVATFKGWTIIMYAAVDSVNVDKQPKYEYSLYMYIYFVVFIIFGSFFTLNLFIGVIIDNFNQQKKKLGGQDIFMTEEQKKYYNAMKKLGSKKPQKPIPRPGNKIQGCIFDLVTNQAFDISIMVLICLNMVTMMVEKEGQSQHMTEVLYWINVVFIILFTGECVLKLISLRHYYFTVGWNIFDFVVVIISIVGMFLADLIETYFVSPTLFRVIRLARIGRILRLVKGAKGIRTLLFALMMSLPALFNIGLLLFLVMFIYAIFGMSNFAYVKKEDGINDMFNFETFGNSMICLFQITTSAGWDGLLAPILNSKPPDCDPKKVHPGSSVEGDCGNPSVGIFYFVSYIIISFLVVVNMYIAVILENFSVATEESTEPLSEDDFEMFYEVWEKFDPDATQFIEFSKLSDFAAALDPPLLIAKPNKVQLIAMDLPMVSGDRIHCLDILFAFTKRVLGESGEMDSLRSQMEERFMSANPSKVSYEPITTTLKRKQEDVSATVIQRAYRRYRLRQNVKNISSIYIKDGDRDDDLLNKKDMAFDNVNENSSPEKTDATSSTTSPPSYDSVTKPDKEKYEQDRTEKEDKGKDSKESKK
T3 sequence (Q07699 19-218, further chain): as the sequence (Q07699 19-218) above
How it was run: as §1

For CC(C)C[C@H](NC(=O)[C@H](CC(=O)O)NC(=O)[C@H](Cc1ccc(O)cc1)NC(=O)[C@H](CCCNC(=N)N)NC(=O)[C@@H]1CSSC[C@@H]2NC(=O)[C@H](CCCCN)NC(=O)[C@H](CC(N)=O)NC(=O)[C@H](CC(N)=O)NC(=O)[C@H](CC(N)=O)NC(=O)[C@@H]3CCCN3C(=O)[C@H](CC(=O)O)NC(=O)[C@@H]3CSSC[C@H](NC(=O)[C@H](C(C)C)NC(=O)[C@H](Cc4ccc(O)cc4)NC(=O)CNC(=O)[C@H](CCC(=O)O)NC(=O)[C@H](CSSC[C@H](NC(=O)[C@H](CC(=O)O)NC(=O)CN)C(=O)N[C@@H](CC(C)C)C(=O)NCC(=O)N[C@@H](Cc4c[nH]c5ccccc45)C(=O)N[C@@H](Cc4ccccc4)C(=O)N[C@@H](CO)C(=O)NCC(=O)N3)NC2=O)C(=O)N[C@@H](Cc2c[nH]cn2)C(=O)N[C@@H](CO)C(=O)N[C@@H](CCCCN)C(=O)N[C@@H](Cc2ccc(O)cc2)C(=O)N2CCC[C@H]2C(=O)N[C@@H](Cc2c[nH]c3ccccc23)C(=O)N1)C(=O)O [W24S], the IC50 (hNaV1.2) was 1460 nM, the IC50 (hNaV1.3) was > 3000 nM and the IC50 (hNaV1.7) was > 3000 nM.
With CC(C)C[C@H](NC(=O)[C@H](CC(=O)O)NC(=O)[C@H](C)NC(=O)[C@H](CCCNC(=N)N)NC(=O)[C@@H]1CSSC[C@@H]2NC(=O)[C@H](CCCCN)NC(=O)[C@H](CC(N)=O)NC(=O)[C@H](CC(N)=O)NC(=O)[C@H](CC(N)=O)NC(=O)[C@@H]3CCCN3C(=O)[C@H](CC(=O)O)NC(=O)[C@@H]3CSSC[C@H](NC(=O)[C@H](C(C)C)NC(=O)[C@H](Cc4ccc(O)cc4)NC(=O)CNC(=O)[C@H](CCC(=O)O)NC(=O)[C@H](CSSC[C@H](NC(=O)[C@H](CC(=O)O)NC(=O)CN)C(=O)N[C@@H](CC(C)C)C(=O)NCC(=O)N[C@@H](Cc4c[nH]c5ccccc45)C(=O)N[C@@H](Cc4ccccc4)C(=O)N[C@@H](CO)C(=O)NCC(=O)N3)NC2=O)C(=O)N[C@@H](Cc2c[nH]cn2)C(=O)N[C@@H](Cc2c[nH]c3ccccc23)C(=O)N[C@@H](CCCCN)C(=O)N[C@@H](Cc2ccc(O)cc2)C(=O)N2CCC[C@H]2C(=O)N[C@@H](Cc2c[nH]c3ccccc23)C(=O)N1)C(=O)O [Y31A] the IC50 (hNaV1.2) was 633 nM, the IC50 (hNaV1.3) was > 1000 nM and the IC50 (hNaV1.7) was 254 nM.
For CC(C)C[C@H](NC(=O)[C@H](CC(=O)O)NC(=O)[C@H](Cc1ccc(O)cc1)NC(=O)[C@H](CCCNC(=N)N)NC(=O)[C@@H]1CSSC[C@@H]2NC(=O)[C@H](CCCCN)NC(=O)[C@H](CC(N)=O)NC(=O)[C@H](CC(N)=O)NC(=O)[C@H](CC(N)=O)NC(=O)[C@@H]3CCCN3C(=O)[C@H](CC(=O)O)NC(=O)[C@@H]3CSSC[C@H](NC(=O)[C@H](C(C)C)NC(=O)[C@H](CC(C)C)NC(=O)CNC(=O)[C@H](CCC(=O)O)NC(=O)[C@H](CSSC[C@H](NC(=O)[C@H](CC(=O)O)NC(=O)CN)C(=O)N[C@@H](CC(C)C)C(=O)NCC(=O)N[C@@H](Cc4c[nH]c5ccccc45)C(=O)N[C@@H](Cc4ccccc4)C(=O)N[C@@H](CO)C(=O)NCC(=O)N3)NC2=O)C(=O)N[C@@H](Cc2c[nH]cn2)C(=O)N[C@@H](Cc2c[nH]c3ccccc23)C(=O)N[C@@H](CCCCN)C(=O)N[C@@H](Cc2ccc(O)cc2)C(=O)N2CCC[C@H]2C(=O)N[C@@H](Cc2c[nH]c3ccccc23)C(=O)N1)C(=O)O [Y20L], the IC50 (hNaV1.2) was 340 nM, the IC50 (hNaV1.3) was 476 nM and the IC50 (hNaV1.7) was 288 nM.
For CC(C)C[C@H](NC(=O)[C@H](CC(=O)O)NC(=O)[C@H](Cc1ccc(O)cc1)NC(=O)[C@H](CCCNC(=N)N)NC(=O)[C@@H]1CSSC[C@@H]2NC(=O)[C@H](CCCCN)NC(=O)[C@H](CC(N)=O)NC(=O)[C@H](CC(N)=O)NC(=O)[C@H](CC(N)=O)NC(=O)[C@@H]3CCCN3C(=O)[C@H](CC(=O)O)NC(=O)[C@@H]3CSSC[C@H](NC(=O)[C@H](C(C)C)NC(=O)[C@H](Cc4ccc(O)cc4)NC(=O)CNC(=O)[C@H](CCC(=O)O)NC(=O)[C@H](CSSC[C@H](NC(=O)[C@H](CC(=O)O)NC(=O)CN)C(=O)N[C@@H](CC(C)C)C(=O)NCC(=O)N[C@@H](Cc4c[nH]c5ccccc45)C(=O)N[C@@H](Cc4ccccc4)C(=O)N[C@@H](CO)C(=O)NCC(=O)N3)NC2=O)C(=O)N[C@@H](Cc2c[nH]cn2)C(=O)N[C@@H](Cc2c[nH]c3ccccc23)C(=O)N[C@@H](CCCCN)C(=O)N[C@@H](Cc2ccc(O)cc2)C(=O)N2CCC[C@H]2C(=O)N[C@@H](CCCCN)C(=O)N1)C(=O)O [W28K] (H-GDCLGWFSGCDPNNNKCCEGYVCHWKYPKCRYDL-OH; disulfide 3-18, 10-23, 17-30 (inferred); N-terminus and C-terminus assumed), the IC50 (hNaV1.2) was > 3000 nM, the IC50 (hNaV1.3) was > 3000 nM and the IC50 (hNaV1.7) was > 3000 nM.
Compound CC(C)C[C@H](NC(=O)[C@H](CC(=O)O)NC(=O)[C@H](Cc1ccc(O)cc1)NC(=O)[C@H](CCCNC(=N)N)NC(=O)[C@@H]1CSSC[C@@H]2NC(=O)[C@H](CCCCN)NC(=O)[C@H](CC(N)=O)NC(=O)[C@H](CC(N)=O)NC(=O)[C@H](CC(N)=O)NC(=O)[C@H](C)NC(=O)[C@H](CC(=O)O)NC(=O)[C@@H]3CSSC[C@H](NC(=O)[C@H](C(C)C)NC(=O)[C@H](Cc4ccc(O)cc4)NC(=O)CNC(=O)[C@H](CCC(=O)O)NC(=O)[C@H](CSSC[C@H](NC(=O)[C@H](CC(=O)O)NC(=O)CN)C(=O)N[C@@H](CC(C)C)C(=O)NCC(=O)N[C@@H](Cc4c[nH]c5ccccc45)C(=O)N[C@@H](Cc4ccccc4)C(=O)N[C@@H](CO)C(=O)NCC(=O)N3)NC2=O)C(=O)N[C@@H](Cc2c[nH]cn2)C(=O)N[C@@H](Cc2c[nH]c3ccccc23)C(=O)N[C@@H](CCCCN)C(=O)N[C@@H](Cc2ccc(O)cc2)C(=O)N2CCC[C@H]2C(=O)N[C@@H](Cc2c[nH]c3ccccc23)C(=O)N1)C(=O)O [P11A] has an IC50 (hNaV1.2) of 208 nM, an IC50 (hNaV1.3) of 600 nM and an IC50 (hNaV1.7) of 120 nM.
In the case of CC(C)C[C@H](NC(=O)[C@H](CC(=O)O)NC(=O)[C@H](Cc1ccc(O)cc1)NC(=O)[C@H](CCCNC(=N)N)NC(=O)[C@@H]1CSSC[C@@H]2NC(=O)[C@H](CCCCN)NC(=O)[C@H](CC(N)=O)NC(=O)[C@H](CC(N)=O)NC(=O)[C@H](CC(N)=O)NC(=O)[C@@H]3CCCN3C(=O)[C@H](CC(=O)O)NC(=O)[C@@H]3CSSC[C@H](NC(=O)[C@H](C(C)C)NC(=O)[C@H](Cc4ccc(O)cc4)NC(=O)CNC(=O)[C@H](CCC(=O)O)NC(=O)[C@H](CSSC[C@H](NC(=O)[C@H](CC(=O)O)NC(=O)CN)C(=O)N[C@@H](CC(C)C)C(=O)NCC(=O)N[C@@H](C)C(=O)N[C@@H](Cc4ccccc4)C(=O)N[C@@H](CO)C(=O)NCC(=O)N3)NC2=O)C(=O)N[C@@H](Cc2c[nH]cn2)C(=O)N[C@@H](Cc2c[nH]c3ccccc23)C(=O)N[C@@H](CCCCN)C(=O)N[C@@H](Cc2ccc(O)cc2)C(=O)N2CCC[C@H]2C(=O)N[C@@H](Cc2c[nH]c3ccccc23)C(=O)N1)C(=O)O [W5A] (H-GDCLGAFSGCDPNNNKCCEGYVCHWKYPWCRYDL-OH; disulfide 3-18, 10-23, 17-30 (inferred); N-terminus and C-terminus assumed), the IC50 (hNaV1.2) is reported as > 1000 nM, the “Loss (reduction) in potency vs rSsp1a at hNaV1.2” value (hNaV1.2; relative to wild type rSsp1a) is reported as ≥ 10 fold and the IC50 (hNaV1.3) is reported as > 1000 nM. For the same compound, the IC50 (hNaV1.7) was > 1000 nM and the “Loss (reduction) in potency vs rSsp1a at hNaV1.7” value (hNaV1.7; relative to wild type rSsp1a) was ≥ 10 fold.
